What was measured:
PC-3 = assay: Growth inhibition of human PC3 cells assessed as cell growth at 10 uM after 48 hrs by sulforhodamine B assay; type: functional; conditions: PC-3, 48 h, read-out: Activity
SW-620 = assay: Growth inhibition of human SW620 cells after 48 hrs by sulforhodamine B assay; type: functional; conditions: SW-620, 48 h
HT-29 [1] = assay: Growth inhibition of human HT-29 cells after 48 hrs by sulforhodamine B assay; type: functional; conditions: HT-29, 48 h
[2] = Growth inhibition of human HCC2998 cells after 48 hrs by sulforhodamine B assay; type: functional; conditions: HCC 2998, 48 h
NCI-H460 = assay: Growth inhibition of human NCI-H460 cells after 48 hrs by sulforhodamine B assay; type: functional; conditions: NCI-H460, 48 h
NCI-H226 [3] = assay: Growth inhibition of human NCI-H226 cells after 48 hrs by sulforhodamine B assay; type: functional; conditions: NCI-H226, 48 h
HOP-92 = assay: Growth inhibition of human HOP92 cells after 48 hrs by sulforhodamine B assay; type: functional, cell-based; conditions: HOP-92, 48 h
A549 [4] = assay: Growth inhibition of human A549/ATCC cells after 48 hrs by sulforhodamine B assay; type: functional; conditions: A549, 48 h
786-0 = assay: Growth inhibition of human 786-0 cells assessed as cell growth at 10 uM after 48 hrs by sulforhodamine B assay; type: functional; conditions: 786-0, 48 h, read-out: Activity
SK-OV-3 = assay: Growth inhibition of human SKOV3 cells assessed as cell growth at 10 uM after 48 hrs by sulforhodamine B assay; type: functional; conditions: SK-OV-3, 48 h, read-out: Activity
UACC-257 = assay: Growth inhibition of human UACC257 cells assessed as cell growth at 10 uM after 48 hrs by sulforhodamine B assay; type: functional; conditions: UACC-257, 48 h, read-out: Activity
SK-MEL-28 = assay: Growth inhibition of human SK-MEL-28 cells assessed as cell growth at 10 uM after 48 hrs by sulforhodamine B assay; type: functional; conditions: SK-MEL-28, 48 h, read-out: Activity
U-251 [5] = assay: Growth inhibition of human U251 cells assessed as cell growth at 10 uM after 48 hrs by sulforhodamine B assay; type: functional; conditions: U-251, 48 h, read-out: Activity
SNB-19 = assay: Growth inhibition of human SNB19 cells assessed as cell growth at 10 uM after 48 hrs by sulforhodamine B assay; type: functional; conditions: SNB-19, 48 h, read-out: Activity
HT-29 [6] = assay: Growth inhibition of human HT-29 cells assessed as cell growth at 10 uM after 48 hrs by sulforhodamine B assay; type: functional; conditions: HT-29, 48 h, read-out: Activity
HCT-116 = assay: Growth inhibition of human HCT116 cells assessed as cell growth at 10 uM after 48 hrs by sulforhodamine B assay; type: functional; conditions: HCT-116, 48 h, read-out: Activity
NCI-H23 = assay: Growth inhibition of human NCI-H23 cells assessed as cell growth at 10 uM after 48 hrs by sulforhodamine B assay; type: functional; conditions: NCI-H23, 48 h, read-out: Activity
NCI-H226 [7] = assay: Growth inhibition of human NCI-H226 cells assessed as cell growth at 10 uM after 48 hrs by sulforhodamine B assay; type: functional; conditions: NCI-H226, 48 h, read-out: Activity
MDA-MB-468 = assay: Growth inhibition of human MDA-MB-468 cells after 48 hrs by sulforhodamine B assay; type: functional, cell-based; conditions: MDA-MB-468, 48 h
T47D = assay: Growth inhibition of human T47D cells after 48 hrs by sulforhodamine B assay; type: functional
MCF7 = assay: Growth inhibition of human MCF7 cells after 48 hrs by sulforhodamine B assay; type: functional; conditions: MCF7, 48 h
A498 = assay: Growth inhibition of human A498 cells after 48 hrs by sulforhodamine B assay; type: functional, cell-based; conditions: A498, 48 h
ACHN = assay: Growth inhibition of human ACHN cells after 48 hrs by sulforhodamine B assay; type: functional
[8] = Growth inhibition of human NCI-ADR-RES cells after 48 hrs by sulforhodamine B assay; type: functional
OVCAR-3 = assay: Growth inhibition of human OVCAR3 cells after 48 hrs by sulforhodamine B assay; type: functional, cell-based; conditions: OVCAR-3, 48 h
IGROV-1 = assay: Growth inhibition of human IGROV1 cells after 48 hrs by sulforhodamine B assay; type: functional; conditions: IGROV-1, 48 h
SNB-75 = assay: Growth inhibition of human SNB75 cells after 48 hrs by sulforhodamine B assay; type: functional; conditions: SNB-75, 48 h
U-251 [9] = assay: Growth inhibition of human U251 cells after 48 hrs by sulforhodamine B assay; type: functional; conditions: U-251, 48 h
SF-539 = assay: Growth inhibition of human SF539 cells after 48 hrs by sulforhodamine B assay; type: functional; conditions: SF-539, 48 h
SF-295 = assay: Growth inhibition of human SF295 cells after 48 hrs by sulforhodamine B assay; type: functional, cell-based; conditions: SF-295, 48 h
HOP-62 = assay: Growth inhibition of human HOP62 cells assessed as cell growth at 10 uM after 48 hrs by sulforhodamine B assay; type: functional; conditions: HOP-62, 48 h, read-out: Activity
A549 [10] = assay: Growth inhibition of human A549/ATCC cells assessed as cell growth at 10 uM after 48 hrs by sulforhodamine B assay; type: functional; conditions: A549, 48 h, read-out: Activity
HL-60(TB) = assay: Growth inhibition of human HL-60(TB) cells assessed as cell growth at 10 uM after 48 hrs by sulforhodamine B assay; type: functional; conditions: HL-60, 48 h, read-out: Activity
[11] = read-out: LC50 (the source's name)

## O=C(Nc1cccc(-n2cc(-c3ccncc3)c(-c3ccc(Cl)c(O)c3)n2)c1)Nc1cc(C(F)(F)F)cc(C(F)(F)F)c1
PC-3
  growth at 10 µM: -32.4%
SW-620
  GI50: 1300 nM
  TGI: 5110 nM
SW-620; [11]
  CC50: 23400 nM
HT-29 [1]
  GI50: 746 nM
  TGI: 1870 nM
HT-29 [1]; [11]
  CC50: 4670 nM
[2]
  GI50: 1030 nM
  TGI: 2410 nM
[2]; [11]
  CC50: 7160 nM
NCI-H460
  GI50: 413 nM
  LC50: 4860 nM
  TGI: 1480 nM
NCI-H226 [3]
  GI50: 1240 nM
  TGI: 6120 nM
NCI-H226 [3]; [11]
  CC50: 37600 nM
HOP-92
  GI50: 344 nM
  IC50: 340 nM
  LC50: 8660 nM
  TGI: 1750 nM
A549 [4]
  GI50: 298 nM
  LC50 (concentration killing 50% of starting cells): 11400 nM
  TGI: 1690 nM
786-0
  growth at 10 µM: -46.8%
SK-OV-3
  growth at 10 µM: -24.4%
UACC-257
  growth at 10 µM: -50.9%
SK-MEL-28
  growth at 10 µM: -62.4%
U-251 [5]
  growth at 10 µM: -83.8%
SNB-19
  growth at 10 µM: 11.3%
HT-29 [6]
  growth at 10 µM: -56%
HCT-116
  growth at 10 µM: -59.1%
NCI-H23
  growth at 10 µM: -7.93%
NCI-H226 [7]
  growth at 10 µM: 1.17%
MDA-MB-468
  GI50: 265 nM
  IC50: 270 nM
  TGI: 2660 nM
MDA-MB-468; [11]
  CC50: 37100 nM
T47D
  GI50: 1820 nM
  TGI: 14000 nM
T47D; [11]
  CC50: > 50000 nM
MCF7
  GI50: 540 nM
  LC50: 31500 nM
  TGI: 5790 nM
A498
  GI50: 792 nM
  IC50: 790 nM
  TGI: 4330 nM
A498; [11]
  CC50: 16000 nM
ACHN
  GI50: 624 nM
  TGI: 5270 nM
ACHN; [11]
  CC50: 17300 nM
[8]
  GI50: 1070 nM
  TGI: 5250 nM
[8]; [11]
  CC50: 38700 nM
OVCAR-3
  GI50: 395 nM
  IC50: 400 nM
  TGI: 1200 nM
OVCAR-3; [11]
  CC50: 3310 nM
IGROV-1
  GI50: 896 nM
  LC50 (concentration killing 50% of cells): 38200 nM
  TGI: 3550 nM
SNB-75
  GI50: 877 nM
  LC50 (lethal concentration, 50% net cell kill): 7030 nM
  TGI: 2180 nM
U-251 [9]
  GI50: 463 nM
  LC50 (concentration killing 50% of cells): 2800 nM
  TGI: 1170 nM
SF-539
  GI50: 765 nM
  LC50 (concentration killing 50% of cells): 2890 nM
  TGI: 1490 nM
SF-295
  GI50: 618 nM
  IC50: 620 nM
  TGI: 1650 nM
SF-295; [11]
  CC50: 4390 nM
HOP-62
  growth at 10 µM: -86.1%
A549 [10]
  growth at 10 µM: -32.5%
HL-60(TB)
  growth at 10 µM: -18.3%

From ChEMBL document CHEMBL2440076, “New triarylpyrazoles as broad-spectrum anticancer agents: design, synthesis, and biological evaluation” (Eur J Med Chem, 2013)
